Measured values: PubChem BioAssay (NCI)
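Step 1: Grow cells in 96-well plates. Step 2: Expose to compound for 48 hours at 5 concentrations. Step 3: Interpolate endpoints linearly; if unreached, use highest concentration. GI50 = concentration required for 50% inhibition of growth. TGI is the concentration that stops growth completely.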

Experiments:
Assay in all cases: NCI tumour cell line growth inhibition, 48 h
SW-620 colon = system: SW-620 colon
COLO 205 colon = system: COLO 205 colon
SNB-19 CNS = system: SNB-19 CNS
HCT-15 colon = system: HCT-15 colon
NCI-H226 lung = system: NCI-H226 lung
HL-60(TB) leukemia = system: HL-60(TB) leukemia
OVCAR-8 ovarian = system: OVCAR-8 ovarian
OVCAR-5 ovarian = system: OVCAR-5 ovarian
NCI-H522 lung = system: NCI-H522 lung
HS 578T breast = system: HS 578T breast

SMILES	TGI (SW-620 colon) [µM]	TGI (COLO 205 colon) [µM]	TGI (SNB-19 CNS) [µM]	TGI (HCT-15 colon) [µM]	TGI (NCI-H226 lung) [µM]	TGI (HL-60(TB) leukemia) [µM]	TGI (OVCAR-8 ovarian) [µM]	TGI (OVCAR-5 ovarian) [µM]	GI50 (NCI-H522 lung) [nM]	TGI (NCI-H522 lung) [µM]	GI50 (SNB-19 CNS) [µM]	GI50 (HS 578T breast) [µM]	TGI (HS 578T breast) [µM]	GI50 (OVCAR-8 ovarian) [nM]	GI50 (OVCAR-5 ovarian) [µM]	GI50 (SW-620 colon) [nM]	GI50 (COLO 205 colon) [nM]	GI50 (HCT-15 colon) [nM]	GI50 (NCI-H226 lung) [nM]	GI50 (HL-60(TB) leukemia) [nM]
O=C(O)c1ccc([N+](=O)[O-])c(P(=O)(O)O)c1	> 100	> 100	> 100	> 100	> 100	> 100	> 100	> 100	–	–	–	–	–	–	–	–	–	–	–	–
CCCCN(CCCC)c1cc(C(=O)CCCCCN)c2ccccc2n1	–	–	3.12	–	–	–	4.61	3.65	1910	3.52	1.65	2.13	6.05	2030	1.85	–	–	–	–	–
CCOC(=O)CC(=O)N(c1ccc(OC)cc1)C(C(=O)OC)c1ccccc1 (centres undefined)	> 100	> 100	> 100	> 100	–	–	> 100	> 100	–	> 100	–	–	> 100	–	–	–	–	–	–	–
O=C(Nc1cccc(-n2cc(-c3ccncc3)c(-c3cc(O)cc(Cl)c3)n2)c1)Nc1ccc(Cl)c(Cl)c1	9.97	3.78	19	8.04	7.16	–	5.06	6.16	1100	3.14	3.18	3.23	> 100	2020	2.14	3220	1960	2100	2280	–
CCOC(=O)/C(=C/c1cc(OC)ccc1OC)CC(=O)O	> 100	> 100	> 100	> 62.7	–	> 31.6	> 100	–	–	> 100	–	–	–	–	–	–	–	–	–	–
C=CC[Se]C(=O)c1ccccc1OC(C)=O	3.9	5.01	1.66	5.09	6.44	6.54	3.56	–	1930	4.62	0.493	1.83	6.24	1520	–	1870	2250	2120	2620	2400
COC(=O)C1=C(C(=O)Nc2cccnc2)C2OC1(C(Cc1ccccc1)Oc1ccccc1)C1OC21 (centres undefined)	3.58	3.29	28.8	–	4.12	2.75	22.8	16.8	1370	2.95	14.8	18.6	49.9	7940	4.1	1690	1730	–	1920	569
O=S1Cc2ccccc2CS1 (centres undefined)	27.1	28.8	> 100	> 100	> 100	40.9	28.7	56.9	–	19.7	–	–	–	–	–	–	–	–	–	–
CC(=O)NC(ON1C(=O)COc2ccccc21)C(Cl)(Cl)Cl (centres undefined)	> 100	> 100	> 100	> 100	88.1	> 100	> 100	> 100	–	> 100	–	–	–	–	–	–	–	–	–	–
Cc1ccc(NC(=O)C2C(=O)C(=O)N(c3ccc(C)cc3)C2=O)cc1 (centres undefined)	> 100	> 100	> 100	> 100	–	> 100	> 100	> 100	–	> 100	–	–	–	–	–	–	–	–	–	–
Cc1c(NC(=O)CCCl)c(=O)oc2c(C)c3occc(=O)c3cc12	> 100	> 100	> 100	> 100	–	> 100	> 100	> 100	–	–	–	–	> 100	–	–	–	–	–	–	–
Nc1ccccc1S(=O)c1ccccc1 (centres undefined)	> 100	> 100	> 100	> 100	> 100	> 100	> 100	> 100	–	> 100	–	–	–	–	–	–	–	–	–	–
CC(=O)c1cc2c3c(c1)c1cc4c(cc1c(=O)n3CC2)OCO4	> 100	> 100	> 100	> 100	> 100	> 100	> 100	> 100	–	34	–	–	–	–	–	–	–	–	–	–
Cc1cc(=O)[nH]c(CNC(=O)c2cccc3ccccc23)n1	> 100	> 100	> 100	> 100	> 100	> 100	> 100	–	–	> 100	–	–	–	–	–	–	–	–	–	–
c1ccc2c(c1)nnn1c3cnccc3nc21	> 100	46.1	> 100	80	–	33	> 100	> 100	–	28.4	–	–	–	–	–	–	–	–	–	–
CC1C(=O)CCC1C(Sc1ccccc1)(Sc1ccccc1)Sc1ccccc1 (centres undefined)	> 100	> 100	> 100	> 100	–	23.7	> 100	> 100	–	26.8	–	–	–	–	–	–	–	–	–	–
CCCCC(SC(=S)N(CC)CC)C(=O)Nc1nc(CC(=O)OCC)cs1 (centres undefined)	> 100	–	> 100	> 100	> 100	98.5	> 100	> 100	13300	> 100	56.9	47.9	> 100	41400	40.3	38000	–	48500	58000	28600
COC(=O)C1C2CC3C(OC(=O)C31)C2I (centres undefined)	> 100	> 100	> 100	> 100	> 100	> 100	> 100	> 100	–	> 100	–	–	–	–	–	–	–	–	–	–
O=[n+]1cnn([O-])c2ccccc21	46.1	40.7	> 100	35.6	> 100	–	> 100	> 100	–	45.2	–	–	> 100	–	–	–	–	–	–	–
